# Measurements from the NIST ThermoML archive (doi:10.1016/j.fluid.2008.04.021).
# ± gives the expanded uncertainty stated by the source.
# Assay: excess molar enthalpy (molar enthalpy of mixing); xn = mol fraction of the nth substance listed
# Details: Liquid
SMILES,"excess molar enthalpy (298.15 K, x2 = 0) [kcal/mol]","excess molar enthalpy (298.15 K, x2 = 0.05) [kcal/mol]","excess molar enthalpy (298.15 K, x2 = 0.1) [kcal/mol]","excess molar enthalpy (298.15 K, x2 = 0.15) [kcal/mol]","excess molar enthalpy (298.15 K, x2 = 0.2) [kcal/mol]","excess molar enthalpy (298.15 K, x2 = 0.25) [kcal/mol]","excess molar enthalpy (298.15 K, x2 = 0.3) [kcal/mol]","excess molar enthalpy (298.15 K, x2 = 0.35) [kcal/mol]","excess molar enthalpy (298.15 K, x2 = 0.4) [kcal/mol]","excess molar enthalpy (298.15 K, x2 = 0.45) [kcal/mol]","excess molar enthalpy (298.15 K, x2 = 0.5) [kcal/mol]","excess molar enthalpy (298.15 K, x2 = 0.55) [kcal/mol]","excess molar enthalpy (298.15 K, x2 = 0.6) [kcal/mol]","excess molar enthalpy (298.15 K, x2 = 0.65) [kcal/mol]","excess molar enthalpy (298.15 K, x2 = 0.7) [kcal/mol]","excess molar enthalpy (298.15 K, x2 = 0.75) [kcal/mol]","excess molar enthalpy (298.15 K, x2 = 0.8) [kcal/mol]","excess molar enthalpy (298.15 K, x2 = 0.85) [kcal/mol]","excess molar enthalpy (298.15 K, x2 = 0.9) [kcal/mol]","excess molar enthalpy (298.15 K, x1 = 1) [kcal/mol]",further results
CCCCOC [butyl methyl ether] + FC(F)(F)C(F)(F)C(F)(F)C(F)(F)C(F)(F)C(F)(F)F,0 ± 0.000478,0.148 ± 0.00335,0.26 ± 0.00574,0.344 ± 0.00741,0.406 ± 0.0086,0.452 ± 0.00956,0.486 ± 0.0103,0.51 ± 0.0108,0.526 ± 0.011,0.535 ± 0.0112,0.539 ± 0.0112,0.535 ± 0.0112,0.524 ± 0.011,0.505 ± 0.0105,0.475 ± 0.01,0.434 ± 0.00908,0.379 ± 0.00813,0.31 ± 0.00669,0.224 ± 0.00502,–,"excess molar enthalpy (298.15 K, x2 = 0.95): 0.121 ± 0.00287 kcal/mol"
FC(F)(F)C(F)(F)C(F)(F)C(F)(F)C(F)(F)C(F)(F)F [perfluorohexane] + CCOCC,–,–,–,–,–,–,–,–,–,–,–,–,–,–,–,–,–,–,–,–,"excess molar enthalpy (293.15 K, x1 = 1): 0 ± 0.000478 kcal/mol"
CCCOCCC [dipropyl ether] + FC(F)(F)C(F)(F)C(F)(F)C(F)(F)C(F)(F)C(F)(F)F,0 ± 0.000478,0.137 ± 0.00311,0.249 ± 0.0055,0.34 ± 0.00717,0.413 ± 0.00884,0.47 ± 0.0098,0.514 ± 0.0108,0.547 ± 0.0115,0.569 ± 0.012,0.582 ± 0.0122,0.586 ± 0.0122,0.582 ± 0.0122,0.569 ± 0.012,0.546 ± 0.0115,0.514 ± 0.0108,0.469 ± 0.0098,0.411 ± 0.0086,0.338 ± 0.00717,0.247 ± 0.0055,–,"excess molar enthalpy (298.15 K, x2 = 0.95): 0.135 ± 0.00311 kcal/mol"
FC(F)(F)C(F)(F)C(F)(F)C(F)(F)C(F)(F)C(F)(F)F [perfluorohexane] + CCCCOCCCC,–,–,–,–,–,–,–,–,–,–,–,–,–,–,–,–,–,–,–,0 ± 0.000478,"excess molar enthalpy (298.15 K, x1 = 0.05): 0.144 ± 0.00335 kcal/mol; excess molar enthalpy (298.15 K, x1 = 0.1): 0.255 ± 0.0055 kcal/mol; excess molar enthalpy (298.15 K, x1 = 0.15): 0.338 ± 0.00717 kcal/mol; excess molar enthalpy (298.15 K, x1 = 0.2): 0.399 ± 0.00837 kcal/mol; excess molar enthalpy (298.15 K, x1 = 0.25): 0.443 ± 0.00932 kcal/mol; excess molar enthalpy (298.15 K, x1 = 0.3): 0.473 ± 0.01 kcal/mol; excess molar enthalpy (298.15 K, x1 = 0.35): 0.494 ± 0.0103 kcal/mol; excess molar enthalpy (298.15 K, x1 = 0.4): 0.506 ± 0.0105 kcal/mol; excess molar enthalpy (298.15 K, x1 = 0.45): 0.513 ± 0.0108 kcal/mol; excess molar enthalpy (298.15 K, x1 = 0.5): 0.515 ± 0.0108 kcal/mol; excess molar enthalpy (298.15 K, x1 = 0.55): 0.513 ± 0.0108 kcal/mol; excess molar enthalpy (298.15 K, x1 = 0.6): 0.506 ± 0.0105 kcal/mol; excess molar enthalpy (298.15 K, x1 = 0.65): 0.494 ± 0.0103 kcal/mol; excess molar enthalpy (298.15 K, x1 = 0.7): 0.474 ± 0.01 kcal/mol; excess molar enthalpy (298.15 K, x1 = 0.75): 0.444 ± 0.00932 kcal/mol; excess molar enthalpy (298.15 K, x1 = 0.8): 0.401 ± 0.0086 kcal/mol; excess molar enthalpy (298.15 K, x1 = 0.85): 0.34 ± 0.00717 kcal/mol; excess molar enthalpy (298.15 K, x1 = 0.9): 0.257 ± 0.0055 kcal/mol; excess molar enthalpy (298.15 K, x1 = 0.95): 0.146 ± 0.00335 kcal/mol"
CCCCOCC [butyl ethyl ether] + FC(F)(F)C(F)(F)C(F)(F)C(F)(F)C(F)(F)C(F)(F)F,0 ± 0.000478,0.146 ± 0.00335,0.259 ± 0.00574,0.345 ± 0.00741,0.41 ± 0.0086,0.459 ± 0.00956,0.494 ± 0.0103,0.519 ± 0.0108,0.536 ± 0.0112,0.546 ± 0.0115,0.549 ± 0.0115,0.546 ± 0.0115,0.535 ± 0.0112,0.517 ± 0.0108,0.489 ± 0.0103,0.449 ± 0.00956,0.396 ± 0.00837,0.327 ± 0.00693,0.24 ± 0.00526,–,"excess molar enthalpy (298.15 K, x2 = 0.95): 0.132 ± 0.00311 kcal/mol"
CCOCC [diethyl ether] + FC(F)(F)C(F)(F)C(F)(F)C(F)(F)C(F)(F)C(F)(F)F,–,–,–,–,–,–,–,–,–,–,–,–,–,–,–,–,–,–,–,–,"excess molar enthalpy (293.15 K, x2 = 0): 0 ± 0.000478 kcal/mol; excess molar enthalpy (293.15 K, x2 = 0.05): 0.148 ± 0.00335 kcal/mol; excess molar enthalpy (293.15 K, x2 = 0.1): 0.26 ± 0.00574 kcal/mol; excess molar enthalpy (293.15 K, x2 = 0.15): 0.344 ± 0.00741 kcal/mol; excess molar enthalpy (293.15 K, x2 = 0.2): 0.408 ± 0.0086 kcal/mol; excess molar enthalpy (293.15 K, x2 = 0.25): 0.455 ± 0.00956 kcal/mol; excess molar enthalpy (293.15 K, x2 = 0.3): 0.491 ± 0.0103 kcal/mol; excess molar enthalpy (293.15 K, x2 = 0.35): 0.517 ± 0.0108 kcal/mol; excess molar enthalpy (293.15 K, x2 = 0.4): 0.535 ± 0.0112 kcal/mol; excess molar enthalpy (293.15 K, x2 = 0.45): 0.547 ± 0.0115 kcal/mol; excess molar enthalpy (293.15 K, x2 = 0.5): 0.551 ± 0.0115 kcal/mol; excess molar enthalpy (293.15 K, x2 = 0.55): 0.546 ± 0.0115 kcal/mol; excess molar enthalpy (293.15 K, x2 = 0.6): 0.533 ± 0.0112 kcal/mol; excess molar enthalpy (293.15 K, x2 = 0.65): 0.51 ± 0.0108 kcal/mol; excess molar enthalpy (293.15 K, x2 = 0.7): 0.475 ± 0.01 kcal/mol; excess molar enthalpy (293.15 K, x2 = 0.75): 0.427 ± 0.00908 kcal/mol; excess molar enthalpy (293.15 K, x2 = 0.8): 0.366 ± 0.00789 kcal/mol; excess molar enthalpy (293.15 K, x2 = 0.85): 0.292 ± 0.00621 kcal/mol; excess molar enthalpy (293.15 K, x2 = 0.9): 0.205 ± 0.00454 kcal/mol; excess molar enthalpy (293.15 K, x2 = 0.95): 0.107 ± 0.00263 kcal/mol"
FC(F)(F)C(F)(F)C(F)(F)C(F)(F)C(F)(F)C(F)(F)F [perfluorohexane] + CCCCOCC,–,–,–,–,–,–,–,–,–,–,–,–,–,–,–,–,–,–,–,0 ± 0.000478,–
FC(F)(F)C(F)(F)C(F)(F)C(F)(F)C(F)(F)C(F)(F)F [perfluorohexane] + CCCCOC,–,–,–,–,–,–,–,–,–,–,–,–,–,–,–,–,–,–,–,0 ± 0.000478,–
FC(F)(F)C(F)(F)C(F)(F)C(F)(F)C(F)(F)C(F)(F)F [perfluorohexane] + CCCOCCC,–,–,–,–,–,–,–,–,–,–,–,–,–,–,–,–,–,–,–,0 ± 0.000478,–
